Source: patent US12624038B2, “Molecules and methods related to treatment of uncontrolled cellular proliferation” (ST. JUDE CHILDREN'S RESEARCH HOSPITAL, priority 2019, dated 2026)

Test system: Caco-2 cells
Experiment: Caco-2 cell permeability
Format: in vitro ADME
Settings: A to B (Table 4)
Procedure: Compound Caco-2 cell permeability was determined using the Transwell® 0.4 μm polycarbonate membrane 96-well as described before (Uchida, et al. (2009) J Pharmacol Toxicol Methods 59(1): 39-43). Briefly, Caco-2 cells monolayers were incubated over 2 hours at 37° C. Fractions were collected from receivers (basal side, B), and concentrations were assessed by UPLC/MS (Waters; Milford, MA). All compounds were tested in triplicates. The A→B (or B→A) apparent permeability coefficients (Papp) of each compound were calculated using the equation, Papp=dQ/dt×1/AC0, where dQ/dt equals the flux of a drug across the monolayer, A equals the total insert well surface area, and C0 is the initial concentration of substrate in the donor compartment.

CCCn1cc(-c2nc(Nc3ccc(C(=O)NCCCCNc4cccc5c4C(=O)N(C4CCC(=O)NC4=O)C5=O)cc3)nc3[nH]ccc23)cn1 (stereo not shown) [Compound 7]
Cac2 Papp A/B: 19.12 nm/S
